Measurements: ChEMBL document CHEMBL1201862, “PubChem BioAssay data set” (2004)
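How tested: cells in 96-well plates exposed to compound for 48 hours at five concentrations. Abbreviation: GI50, concentration required for 50% inhibition of growth.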 Calls of active or inactive are those of the source. No stated cut-off is given here; in the data, active = GI50 up to about 1.1 µM and inactive = higher.

Legend:
Experiment in all cases: NCI anticancer screen, dose series, 48 h
[1] = tested on: NCI-H522
[2] = tested on: NCI/ADR-RES
[3] = tested on: OVCAR-8
[4] = tested on: SN12C
[5] = tested on: CAKI-1
[6] = tested on: NCI-H460
[7] = tested on: HOP-62
[8] = tested on: ACHN
[9] = tested on: MCF7
[10] = tested on: HL-60
[11] = tested on: SNB-75
[12] = tested on: U-251
[13] = tested on: K562
[14] = tested on: HCT-15
[15] = tested on: CCRF-CEM
[16] = tested on: HCT-116
[17] = tested on: TK-10
[18] = tested on: IGROV-1
[19] = tested on: SK-MEL-5
[20] = tested on: RXF 393
[21] = tested on: HOP-92
[22] = tested on: LOX IMVI
[23] = tested on: MDA-MB-435
[24] = tested on: SF-295
[25] = tested on: Malme-3M
[26] = tested on: M14
[27] = tested on: SK-MEL-28
[28] = tested on: SF-268
[29] = tested on: T47D
[30] = tested on: COLO 205
[31] = tested on: OVCAR-4
[32] = tested on: UO-31
[33] = tested on: A498
[34] = tested on: KM12
[35] = tested on: OVCAR-5
[36] = tested on: NCI-H226
[37] = tested on: SF-539
[38] = tested on: MOLT-4
[39] = tested on: NCI-H23
[40] = tested on: A549
[41] = tested on: UACC-62
[42] = tested on: SK-OV-3
[43] = tested on: BT-549
[44] = tested on: MDA-N
[45] = tested on: DU-145
[46] = tested on: EKVX
[47] = tested on: HCC 2998
[48] = tested on: 786-0
[49] = tested on: RPMI-8226
[50] = tested on: HT-29
[51] = tested on: UACC-257
[52] = tested on: OVCAR-3
[53] = tested on: SW-620
[54] = tested on: SNB-19
[55] = tested on: Hs-578T
[56] = tested on: SR
[57] = tested on: SK-MEL-2
[58] = tested on: PC-3

COc1ccc(N[C@H](C[S+]([O-])c2ccc(C)cc2)C(F)(F)C(F)(F)F)cc1 (some centres undefined)
GI50 [1]: 71.4 µM (inactive)
GI50 [2]: > 100 µM (inactive)
GI50 [3]: 90.6 µM (inactive)
GI50 [4]: > 100 µM (inactive)
GI50 [5]: > 100 µM (inactive)
GI50 [6]: > 100 µM (inactive)
GI50 [7]: 57.5 µM (inactive)
GI50 [8]: > 100 µM (inactive)
GI50 [9]: > 100 µM (inactive)
GI50 [10]: > 100 µM (inactive)
GI50 [11]: 21 µM (inactive)
GI50 [12]: 37.4 µM (inactive)
GI50 [13]: > 100 µM (inactive)
GI50 [14]: > 100 µM
GI50 [15]: > 100 µM (inactive)
GI50 [16]: 52.4 µM (inactive)
GI50 [17]: > 100 µM (inactive)
GI50 [18]: > 100 µM (inactive)
GI50 [19]: 68.1 µM (inactive)
GI50 [20]: 4.21 µM (inactive)
GI50 [21]: 26.1 µM (inactive)
GI50 [22]: 91.4 µM (inactive)
GI50 [23]: > 100 µM (inactive)
GI50 [24]: 62.4 µM (inactive)
GI50 [25]: > 100 µM (inactive)
GI50 [26]: 97.3 µM (inactive)
GI50 [27]: > 100 µM (inactive)
GI50 [28]: 52.8 µM (inactive)
GI50 [29]: 14.1 µM (inactive)
GI50 [30]: > 100 µM (inactive)
GI50 [31]: 95.7 µM (inactive)
GI50 [32]: > 100 µM (inactive)
GI50 [33]: > 100 µM (inactive)
GI50 [34]: > 100 µM (inactive)
GI50 [35]: > 100 µM (inactive)
GI50 [36]: 31 µM (inactive)
GI50 [37]: 64.6 µM (inactive)
GI50 [38]: > 100 µM (inactive)
GI50 [39]: 43.5 µM (inactive)
GI50 [40]: 99.5 µM (inactive)
GI50 [41]: 43 µM (inactive)
GI50 [42]: 44.1 µM (inactive)
GI50 [43]: 85.1 µM (inactive)
GI50 [44]: > 100 µM (inactive)
GI50 [45]: > 100 µM (inactive)
GI50 [46]: 65.2 µM (inactive)
GI50 [47]: > 100 µM (inactive)
GI50 [48]: 65.8 µM (inactive)
GI50 [49]: > 100 µM (inactive)
GI50 [50]: > 100 µM (inactive)
GI50 [51]: > 100 µM (inactive)
GI50 [52]: > 100 µM (inactive)
GI50 [53]: > 100 µM (inactive)
GI50 [54]: 35.8 µM (inactive)
GI50 [55]: 36.6 µM (inactive)

COc1ccc(C2=Nn3c(nnc3-c3ccccc3)S/C2=C\c2ccc(-c3ccc([N+](=O)[O-])cc3)o2)cc1
GI50 [56]: 9.62 µM (inactive)
GI50 [1]: 12.8 µM (inactive)
GI50 [2]: 25.2 µM (inactive)
GI50 [3]: 30.5 µM (inactive)
GI50 [4]: 18.2 µM (inactive)
GI50 [5]: 51.2 µM (inactive)
GI50 [6]: 27.4 µM (inactive)
GI50 [7]: 52.4 µM (inactive)
GI50 [8]: 64.1 µM (inactive)
GI50 [9]: 15.1 µM (inactive)
GI50 [10]: 14.5 µM (inactive)
GI50 [12]: 22.6 µM (inactive)
GI50 [13]: 13.3 µM (inactive)
GI50 [14]: 16.5 µM
GI50 [15]: 5.7 µM (inactive)
GI50 [16]: 29.6 µM (inactive)
GI50 [57]: 15.8 µM (inactive)
GI50 [18]: 56.9 µM (inactive)
GI50 [19]: 27.6 µM (inactive)
GI50 [21]: 54.8 µM (inactive)
GI50 [58]: 27.3 µM (inactive)
GI50 [22]: 25 µM (inactive)
GI50 [23]: 5.83 µM (inactive)
GI50 [24]: 26.5 µM (inactive)
GI50 [25]: 34.8 µM (inactive)
GI50 [26]: 25.4 µM (inactive)
GI50 [27]: 69.7 µM (inactive)
GI50 [28]: 28.8 µM (inactive)
GI50 [29]: 18.6 µM (inactive)
GI50 [30]: 25.8 µM (inactive)
GI50 [31]: 30 µM (inactive)
GI50 [32]: 36.4 µM (inactive)
GI50 [33]: 58.6 µM (inactive)
GI50 [34]: 23.2 µM (inactive)
GI50 [35]: 47.6 µM (inactive)
GI50 [38]: 11.3 µM (inactive)
GI50 [40]: 36.7 µM (inactive)
GI50 [41]: 48.3 µM (inactive)
GI50 [42]: 34.4 µM (inactive)
GI50 [43]: 26.2 µM (inactive)
GI50 [44]: 7.6 µM (inactive)
GI50 [46]: 50.9 µM (inactive)
GI50 [47]: 28 µM (inactive)
GI50 [48]: 24.9 µM (inactive)
GI50 [49]: 13.1 µM (inactive)
GI50 [50]: 26.4 µM (inactive)
GI50 [51]: 44.7 µM (inactive)
GI50 [52]: 23.3 µM (inactive)
GI50 [53]: 24.2 µM (inactive)
GI50 [54]: 33.3 µM (inactive)
GI50 [55]: 33.7 µM (inactive)

NCCCCNOCCCN
GI50 [56]: > 100 µM (inactive)
GI50 [1]: 61.5 µM (inactive)
GI50 [2]: > 100 µM (inactive)
GI50 [3]: > 100 µM (inactive)
GI50 [4]: > 100 µM (inactive)
GI50 [5]: > 100 µM (inactive)
GI50 [6]: > 100 µM (inactive)
GI50 [8]: > 100 µM (inactive)
GI50 [9]: > 100 µM (inactive)
GI50 [11]: > 100 µM (inactive)
GI50 [12]: > 100 µM (inactive)
GI50 [13]: > 100 µM (inactive)
GI50 [15]: > 100 µM (inactive)
GI50 [16]: > 100 µM (inactive)
GI50 [17]: > 100 µM (inactive)
GI50 [57]: > 100 µM (inactive)
GI50 [18]: > 100 µM (inactive)
GI50 [19]: > 100 µM (inactive)
GI50 [20]: > 100 µM (inactive)
GI50 [21]: > 100 µM (inactive)
GI50 [58]: > 100 µM (inactive)
GI50 [22]: > 100 µM (inactive)
GI50 [23]: > 100 µM (inactive)
GI50 [24]: > 100 µM (inactive)
GI50 [25]: > 100 µM (inactive)
GI50 [26]: > 100 µM (inactive)
GI50 [27]: > 100 µM (inactive)
GI50 [28]: > 100 µM (inactive)
GI50 [29]: > 100 µM (inactive)
GI50 [30]: > 100 µM (inactive)
GI50 [31]: > 100 µM (inactive)
GI50 [32]: > 100 µM (inactive)
GI50 [34]: > 100 µM (inactive)
GI50 [35]: 42.8 µM (inactive)
GI50 [36]: > 100 µM (inactive)
GI50 [37]: > 100 µM (inactive)
GI50 [38]: > 100 µM (inactive)
GI50 [39]: > 100 µM (inactive)
GI50 [40]: > 100 µM (inactive)
GI50 [41]: > 100 µM (inactive)
GI50 [42]: > 100 µM (inactive)
GI50 [43]: > 100 µM (inactive)
GI50 [44]: > 100 µM (inactive)
GI50 [45]: > 100 µM (inactive)
GI50 [46]: > 100 µM (inactive)
GI50 [47]: > 100 µM (inactive)
GI50 [49]: > 100 µM (inactive)
GI50 [50]: > 100 µM (inactive)
GI50 [51]: > 100 µM (inactive)
GI50 [52]: > 100 µM (inactive)
GI50 [53]: > 100 µM (inactive)
GI50 [54]: > 100 µM (inactive)
GI50 [55]: > 100 µM (inactive)
